From BigSolDB 2.1

CO/N=C(\C(=O)O)c1csc(N)n1
Settings | solubility (mole fraction)
in ethanol, 283.12 K | 6.9e-05
in ethanol, 288.42 K | 8.31e-05
in ethanol, 293.23 K | 0.000101
in ethanol, 298.17 K | 0.000124
in ethanol, 303.33 K | 0.000151
in ethylene glycol, 283.11 K | 0.00129
in ethylene glycol, 288.68 K | 0.00152
in ethylene glycol, 293.41 K | 0.00175
in ethylene glycol, 298.26 K | 0.002
in ethylene glycol, 303.46 K | 0.0023
in methanol, 283.75 K | 0.000293
in methanol, 288.17 K | 0.000334
in methanol, 293.36 K | 0.00038
in methanol, 298.26 K | 0.00043
in methanol, 303.1 K | 0.000489
in n-propanol, 282.85 K | 2.14e-05
in n-propanol, 288.05 K | 2.49e-05
in n-propanol, 293.09 K | 3.1e-05
in n-propanol, 298.3 K | 4.25e-05
in n-propanol, 303.08 K | 5.94e-05
in water, 283.67 K | 0.000356
in water, 288.48 K | 0.000416
in water, 293.22 K | 0.000483
in water, 298.36 K | 0.000557
in water, 303.22 K | 0.000637
